In patent US8106023B2, “1,4-benzothiepin-1, 1-dioxide derivatives with improved properties method for producing the same, drugs containing said compounds and the use thereof” (Sanofi-Aventis Deutschland GmbH, priority 2006, dated 2012):

Biological target: T1, human IBAT (Homo sapiens, UniProt Q12908)
T1 construct: Bases 599 to 1645 correspond to the complete coding region of human IBAT; expressed in transfected cells; pcDNA1 vector
T1 sequence (Q12908 1-348): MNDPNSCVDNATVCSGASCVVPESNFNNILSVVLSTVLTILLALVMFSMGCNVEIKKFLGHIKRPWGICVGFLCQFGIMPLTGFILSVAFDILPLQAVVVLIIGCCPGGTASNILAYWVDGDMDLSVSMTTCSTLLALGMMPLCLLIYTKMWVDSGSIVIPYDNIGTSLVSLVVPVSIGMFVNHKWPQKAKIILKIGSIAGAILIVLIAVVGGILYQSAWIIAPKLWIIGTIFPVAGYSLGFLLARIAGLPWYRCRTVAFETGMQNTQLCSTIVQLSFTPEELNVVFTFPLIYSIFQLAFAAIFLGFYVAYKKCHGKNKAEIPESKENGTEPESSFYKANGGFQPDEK
Assay: in vitro IBAT inhibition assay: IBAT-dependent uptake of [3H]-taurocholic acid into CHO-hIBAT cells
Format: cell-based
Conditions: 10 μM taurocholic acid, 60 min at room temperature, read-out: IC-50 (human IBAT)
Description: The cell clone with the highest uptake activity for [^3H]-TCA, referred to hereinafter as CHO-hIBAT, was selected for the further assays and further cultured in the presence of 400 μg/ml Geneticin.
3. Measurement of the Inhibitory Effect of the Compound of the Invention on the IBAT-Dependent Uptake of Taurocholic Acid into Cells
CHO-hIBAT cells were seeded in a concentration of 40 000 cells per well in poly-D-lysine-coated 96-well plates in cell culture medium and cultured for 24 h. […] Finally, 100 μl of scintillation fluid were added to each well, and the radioactivity taken up into the cells was determined in a MicroBeta Scintillation Microplate Reader from Wallac.
The half-maximum inhibitory effect of the test compound (IC50 value, inhibitory concentration 50) was determined in the following way: • 1. […] This is the measurement in the absence of substance, measured in sodium-containing transport assay buffer. • 2. […] This is the measurement in the absence of substance, measured in sodium-free transport assay buffer. • 3. […]

| IC50 [nM] | SMILES |
| --- | --- |
| 2.5 | CCCC[C@]1(CC)CS(=O)(=O)c2ccc(N(C)C)cc2[C@@H](c2cccc(NC(=O)N[C@@H]3O[C@H](CO)[C@@H](O)[C@H](O)[C@H]3O)c2)[C@H]1O [Example 1] |
| 6 | CCCCC1(CCCC)CS(=O)(=O)c2ccc(N(C)C)cc2[C@@H](c2cccc(NC(=O)N[C@@H]3O[C@H](CO)[C@@H](O)[C@H](O)[C@H]3O)c2)[C@H]1O [Example 2] |
